What all share (assay): DSF 100 kinase selectivity screen;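 also: compound tested at 20 µM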
What all share (assay type): binding

Assay [1] addresses T1, ~100 representative kinases (Homo sapiens, UniProt Q13557).
T1 construct: Recombinant protein kinase domains with a concentration of 2 μM
The conditions noted are these: Protein CAMK2D; average of three replicates. The gist of the method:
(§1)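 Each kinase domain, at 2 μM, is mixed with 20 μM test compound and SYPRO Orange in Hepes (20 mM, pH 7.5) with 500 mM NaCl. Temperature is then raised at 3°C/min and fluorescence-monitored unfolding yields the melting temperature change, ΔTm in degrees Celsius.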

Assay [2] has as its target T2, ~100 representative kinases (Homo sapiens, UniProt Q96L34).
T2 construct: Recombinant protein kinase domains with a concentration of 2 μM
T2 sequence (Q96L34 1-752): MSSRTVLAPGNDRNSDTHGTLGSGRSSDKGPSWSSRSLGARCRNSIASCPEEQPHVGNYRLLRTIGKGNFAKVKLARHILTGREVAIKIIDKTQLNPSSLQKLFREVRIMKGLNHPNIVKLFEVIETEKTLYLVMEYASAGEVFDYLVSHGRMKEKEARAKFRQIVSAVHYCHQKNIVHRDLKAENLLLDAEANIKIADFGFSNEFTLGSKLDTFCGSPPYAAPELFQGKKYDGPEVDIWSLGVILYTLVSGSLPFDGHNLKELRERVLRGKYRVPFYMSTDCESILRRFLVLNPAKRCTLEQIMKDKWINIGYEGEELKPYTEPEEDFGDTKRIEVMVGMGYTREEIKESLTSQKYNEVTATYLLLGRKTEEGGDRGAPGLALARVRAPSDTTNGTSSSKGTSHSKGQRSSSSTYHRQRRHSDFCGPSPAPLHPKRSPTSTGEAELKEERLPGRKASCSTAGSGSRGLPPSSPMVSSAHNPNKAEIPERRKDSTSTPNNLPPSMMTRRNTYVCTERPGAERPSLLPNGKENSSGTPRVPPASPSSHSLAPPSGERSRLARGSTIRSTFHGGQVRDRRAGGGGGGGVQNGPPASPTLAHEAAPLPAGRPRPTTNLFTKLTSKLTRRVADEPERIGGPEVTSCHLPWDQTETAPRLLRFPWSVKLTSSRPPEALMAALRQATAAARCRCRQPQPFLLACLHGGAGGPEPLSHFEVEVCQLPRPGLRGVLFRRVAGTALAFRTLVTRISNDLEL
As to conditions: protein MARK4; average of three replicates. The gist of the method:
as §1

For assay [3], the target named is T3, ~100 representative kinases (Homo sapiens, UniProt P28482).
T3 construct: Recombinant protein kinase domains with a concentration of 2 μM
T3 sequence (P28482 whole entry, the tested form may be a part): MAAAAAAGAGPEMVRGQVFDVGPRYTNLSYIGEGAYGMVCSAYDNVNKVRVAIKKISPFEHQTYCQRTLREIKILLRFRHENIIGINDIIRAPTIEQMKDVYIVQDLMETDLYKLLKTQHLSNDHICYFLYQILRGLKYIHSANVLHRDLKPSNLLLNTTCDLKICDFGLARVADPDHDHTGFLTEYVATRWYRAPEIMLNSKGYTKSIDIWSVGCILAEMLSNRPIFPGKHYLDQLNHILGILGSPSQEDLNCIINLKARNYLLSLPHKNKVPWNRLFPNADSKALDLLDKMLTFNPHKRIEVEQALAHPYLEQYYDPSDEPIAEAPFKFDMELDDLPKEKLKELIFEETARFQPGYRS
As to conditions: protein MAPK1; average of three replicates. The gist of the method: as §1

For assay [4], the target named is T4, ~100 representative kinases (Homo sapiens, UniProt Q14680).
T4 construct: Recombinant protein kinase domains with a concentration of 2 μM
T4 sequence (Q14680 whole entry, the tested form may be a part): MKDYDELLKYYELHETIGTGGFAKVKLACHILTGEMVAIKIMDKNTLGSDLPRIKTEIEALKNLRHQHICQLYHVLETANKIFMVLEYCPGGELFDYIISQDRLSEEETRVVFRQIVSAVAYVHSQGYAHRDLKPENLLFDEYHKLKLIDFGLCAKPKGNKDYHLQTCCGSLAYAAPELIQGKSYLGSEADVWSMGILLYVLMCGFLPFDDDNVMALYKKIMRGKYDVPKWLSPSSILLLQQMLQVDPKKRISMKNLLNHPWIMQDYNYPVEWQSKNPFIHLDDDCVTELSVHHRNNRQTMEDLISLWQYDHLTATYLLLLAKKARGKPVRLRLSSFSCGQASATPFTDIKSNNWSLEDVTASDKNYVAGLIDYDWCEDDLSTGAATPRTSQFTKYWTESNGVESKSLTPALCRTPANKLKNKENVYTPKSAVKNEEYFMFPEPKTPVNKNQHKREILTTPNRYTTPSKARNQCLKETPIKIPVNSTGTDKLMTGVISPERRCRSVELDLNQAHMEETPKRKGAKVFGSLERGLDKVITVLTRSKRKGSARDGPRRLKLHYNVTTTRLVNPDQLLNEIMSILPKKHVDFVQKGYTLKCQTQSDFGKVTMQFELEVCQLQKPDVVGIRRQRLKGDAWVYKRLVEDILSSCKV
As to conditions: protein MELK; average of three replicates. The procedure, abridged:
as §1

In assay [5] the target is T5, ~100 representative kinases (Homo sapiens, UniProt Q00536).
T5 construct: Recombinant protein kinase domains with a concentration of 2 μM
As to conditions: protein PCTK1; average of three replicates. The gist of the method: as §1

The target in assay [6] is T6, ~100 representative kinases (Homo sapiens, UniProt P45983).
T6 construct: Recombinant protein kinase domains with a concentration of 2 μM
T6 sequence (P45983 whole entry, the tested form may be a part): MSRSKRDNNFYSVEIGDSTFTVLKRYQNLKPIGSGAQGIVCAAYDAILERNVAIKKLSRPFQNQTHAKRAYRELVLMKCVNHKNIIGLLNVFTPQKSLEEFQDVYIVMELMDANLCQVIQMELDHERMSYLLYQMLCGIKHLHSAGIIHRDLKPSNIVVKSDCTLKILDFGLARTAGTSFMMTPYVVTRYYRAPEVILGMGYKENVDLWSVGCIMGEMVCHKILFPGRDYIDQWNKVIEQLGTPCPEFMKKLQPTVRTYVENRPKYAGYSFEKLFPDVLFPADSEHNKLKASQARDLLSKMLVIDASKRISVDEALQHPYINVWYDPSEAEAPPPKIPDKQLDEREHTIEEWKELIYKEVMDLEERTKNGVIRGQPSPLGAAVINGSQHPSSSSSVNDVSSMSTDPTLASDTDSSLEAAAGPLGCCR
As to conditions: protein MAPK8; average of three replicates. The gist of the method: as §1

Assay [7] addresses T7, ~100 representative kinases (Homo sapiens, UniProt P54764).
T7 construct: Recombinant protein kinase domains with a concentration of 2 μM
The conditions noted are these: Protein EPHA4; average of three replicates. The gist of the method: as §1

Assay [8] deals with T8, ~100 representative kinases (Homo sapiens, UniProt P22830).
T8 construct: Recombinant protein kinase domains with a concentration of 2 μM
T8 sequence (P22830 55-423): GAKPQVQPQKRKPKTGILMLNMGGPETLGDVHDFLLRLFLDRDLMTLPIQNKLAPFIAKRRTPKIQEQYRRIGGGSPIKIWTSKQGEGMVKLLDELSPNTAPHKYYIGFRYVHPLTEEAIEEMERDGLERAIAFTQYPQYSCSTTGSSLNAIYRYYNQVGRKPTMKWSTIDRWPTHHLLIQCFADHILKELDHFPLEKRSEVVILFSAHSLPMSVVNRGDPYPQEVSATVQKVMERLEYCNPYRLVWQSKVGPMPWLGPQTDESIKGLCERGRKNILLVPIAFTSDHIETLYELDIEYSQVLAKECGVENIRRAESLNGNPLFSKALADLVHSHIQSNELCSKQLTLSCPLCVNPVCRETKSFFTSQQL
As to conditions: protein FECH; average of three replicates. The gist of the method:
as §1

Assay [9] concerns the target T9, ~100 representative kinases (Homo sapiens, UniProt P49841).
T9 construct: Recombinant protein kinase domains with a concentration of 2 μM
As to conditions: protein GSK3B; average of three replicates. The procedure, abridged:
as §1

In assay [10] the target is T10, ~100 representative kinases (Homo sapiens, UniProt P16083).
T10 construct: Recombinant protein kinase domains with a concentration of 2 μM
T10 sequence (P16083 1-231): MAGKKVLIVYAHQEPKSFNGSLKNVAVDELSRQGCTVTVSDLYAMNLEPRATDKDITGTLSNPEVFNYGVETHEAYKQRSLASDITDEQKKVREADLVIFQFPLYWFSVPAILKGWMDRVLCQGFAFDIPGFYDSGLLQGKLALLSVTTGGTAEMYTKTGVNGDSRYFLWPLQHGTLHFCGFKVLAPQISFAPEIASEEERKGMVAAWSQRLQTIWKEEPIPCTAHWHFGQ
As to conditions: protein NQO2; average of three replicates. The gist of the method:
as §1

In assay [11] the target is T11, ~100 representative kinases (Homo sapiens, UniProt Q9H4A3).
T11 construct: Recombinant protein kinase domains with a concentration of 2 μM
T11 sequence (Q9H4A3 whole entry, the tested form may be a part): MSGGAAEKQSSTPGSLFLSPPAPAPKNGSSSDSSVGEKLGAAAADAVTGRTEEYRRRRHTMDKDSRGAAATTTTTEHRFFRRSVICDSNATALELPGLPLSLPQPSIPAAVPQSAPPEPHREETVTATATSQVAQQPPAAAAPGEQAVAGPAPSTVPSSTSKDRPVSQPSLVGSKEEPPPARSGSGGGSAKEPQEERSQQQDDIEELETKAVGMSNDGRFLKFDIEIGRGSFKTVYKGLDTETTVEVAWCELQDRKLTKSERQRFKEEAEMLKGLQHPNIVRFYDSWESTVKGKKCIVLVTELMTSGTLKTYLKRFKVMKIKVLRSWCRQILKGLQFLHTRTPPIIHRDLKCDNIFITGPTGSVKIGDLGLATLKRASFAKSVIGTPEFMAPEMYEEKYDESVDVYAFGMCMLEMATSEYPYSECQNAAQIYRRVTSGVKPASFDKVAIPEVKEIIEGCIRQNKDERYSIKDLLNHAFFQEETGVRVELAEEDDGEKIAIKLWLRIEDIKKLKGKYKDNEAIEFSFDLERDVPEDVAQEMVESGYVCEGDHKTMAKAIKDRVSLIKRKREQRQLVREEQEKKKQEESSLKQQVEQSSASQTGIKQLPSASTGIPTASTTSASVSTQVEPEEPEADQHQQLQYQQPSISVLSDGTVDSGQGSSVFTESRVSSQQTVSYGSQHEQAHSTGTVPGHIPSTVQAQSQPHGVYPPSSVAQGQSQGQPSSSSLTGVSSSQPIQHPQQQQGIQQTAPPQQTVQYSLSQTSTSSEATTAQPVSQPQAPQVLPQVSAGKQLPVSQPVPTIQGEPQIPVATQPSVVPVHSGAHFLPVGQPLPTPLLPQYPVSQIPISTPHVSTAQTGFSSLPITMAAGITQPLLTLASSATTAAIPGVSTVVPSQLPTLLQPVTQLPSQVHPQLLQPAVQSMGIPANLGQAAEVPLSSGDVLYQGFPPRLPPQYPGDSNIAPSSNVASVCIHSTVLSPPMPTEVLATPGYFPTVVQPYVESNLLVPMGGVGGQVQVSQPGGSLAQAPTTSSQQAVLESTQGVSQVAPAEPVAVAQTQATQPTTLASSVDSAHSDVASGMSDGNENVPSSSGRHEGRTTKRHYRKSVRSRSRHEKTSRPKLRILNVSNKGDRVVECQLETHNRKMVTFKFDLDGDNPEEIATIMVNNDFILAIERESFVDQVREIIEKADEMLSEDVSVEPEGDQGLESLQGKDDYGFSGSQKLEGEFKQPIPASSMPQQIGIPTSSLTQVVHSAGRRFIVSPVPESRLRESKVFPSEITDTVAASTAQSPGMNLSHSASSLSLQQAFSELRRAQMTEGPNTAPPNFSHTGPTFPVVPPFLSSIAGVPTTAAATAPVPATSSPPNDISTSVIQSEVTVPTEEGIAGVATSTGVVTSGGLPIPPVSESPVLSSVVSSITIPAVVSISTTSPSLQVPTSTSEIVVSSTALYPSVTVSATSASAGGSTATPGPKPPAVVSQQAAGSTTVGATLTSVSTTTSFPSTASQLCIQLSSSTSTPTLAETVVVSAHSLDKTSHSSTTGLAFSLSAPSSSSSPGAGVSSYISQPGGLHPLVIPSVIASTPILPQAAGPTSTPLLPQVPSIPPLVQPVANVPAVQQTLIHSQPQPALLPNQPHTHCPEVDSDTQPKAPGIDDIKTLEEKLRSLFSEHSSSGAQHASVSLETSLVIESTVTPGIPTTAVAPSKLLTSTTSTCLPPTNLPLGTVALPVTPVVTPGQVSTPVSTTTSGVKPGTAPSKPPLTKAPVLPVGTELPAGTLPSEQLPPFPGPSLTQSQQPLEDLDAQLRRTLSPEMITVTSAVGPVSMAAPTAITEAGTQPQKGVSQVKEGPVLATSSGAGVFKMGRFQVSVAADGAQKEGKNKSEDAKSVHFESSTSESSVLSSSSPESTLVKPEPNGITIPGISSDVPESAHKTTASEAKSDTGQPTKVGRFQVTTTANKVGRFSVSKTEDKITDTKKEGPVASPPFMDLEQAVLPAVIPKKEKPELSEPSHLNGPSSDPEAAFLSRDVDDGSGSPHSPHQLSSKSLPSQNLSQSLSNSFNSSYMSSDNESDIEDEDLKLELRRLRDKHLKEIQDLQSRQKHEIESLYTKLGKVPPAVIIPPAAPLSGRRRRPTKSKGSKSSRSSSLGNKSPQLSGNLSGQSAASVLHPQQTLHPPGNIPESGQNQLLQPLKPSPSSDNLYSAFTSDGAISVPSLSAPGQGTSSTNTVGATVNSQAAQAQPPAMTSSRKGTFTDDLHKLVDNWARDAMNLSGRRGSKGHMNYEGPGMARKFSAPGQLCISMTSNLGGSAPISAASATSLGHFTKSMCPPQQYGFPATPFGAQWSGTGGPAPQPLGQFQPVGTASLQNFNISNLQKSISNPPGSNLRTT
As to conditions: Protein WNK1; DSF; average of three replicates. The gist of the method:
as §1

Data on 11 compounds can be found in paper PMC12136037, “Type II kinase inhibitors that target Parkinson’s disease–associated LRRK2” (Science Advances, 2025).

T1 sequence (Q13557 whole entry, the tested form may be a part): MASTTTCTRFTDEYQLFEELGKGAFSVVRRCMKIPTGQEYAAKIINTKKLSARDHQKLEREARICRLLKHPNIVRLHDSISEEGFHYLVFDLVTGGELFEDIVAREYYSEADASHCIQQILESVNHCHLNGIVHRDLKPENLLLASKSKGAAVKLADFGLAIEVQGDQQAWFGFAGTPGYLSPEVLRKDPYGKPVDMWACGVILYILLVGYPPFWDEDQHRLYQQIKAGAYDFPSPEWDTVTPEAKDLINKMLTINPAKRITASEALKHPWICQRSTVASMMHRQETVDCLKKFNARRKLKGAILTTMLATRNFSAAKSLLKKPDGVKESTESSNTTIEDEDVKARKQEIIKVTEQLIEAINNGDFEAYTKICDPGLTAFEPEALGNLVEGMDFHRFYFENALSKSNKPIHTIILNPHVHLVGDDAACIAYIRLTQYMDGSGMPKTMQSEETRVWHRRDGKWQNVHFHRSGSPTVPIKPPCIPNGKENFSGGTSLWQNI
T9 sequence (P49841 whole entry, the tested form may be a part): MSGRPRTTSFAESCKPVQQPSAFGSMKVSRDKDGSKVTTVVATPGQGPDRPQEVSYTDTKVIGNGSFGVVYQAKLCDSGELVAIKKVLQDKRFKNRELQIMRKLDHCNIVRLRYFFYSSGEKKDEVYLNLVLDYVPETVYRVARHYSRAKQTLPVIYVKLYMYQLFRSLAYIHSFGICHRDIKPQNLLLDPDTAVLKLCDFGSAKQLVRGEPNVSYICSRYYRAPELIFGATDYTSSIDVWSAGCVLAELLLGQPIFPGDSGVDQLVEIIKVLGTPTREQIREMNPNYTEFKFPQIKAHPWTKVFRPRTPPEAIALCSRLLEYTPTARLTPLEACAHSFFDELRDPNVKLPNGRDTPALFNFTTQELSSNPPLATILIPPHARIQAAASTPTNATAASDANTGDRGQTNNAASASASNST

For the compound `O=C(Nc1cccc(-c2c[nH]c3ncnc(N4CCOCC4)c23)c1)C1(C(=O)Nc2ccc(F)c(Br)c2)CC1` [Compound 19], the dTm in assay [1] is 1.25 K; in assay [2], 5.43 K; in assay [3] it was -0.09 K; in [4], 17.38 K; in assay [5], 4.12 K; in [6], 3.53 K. For the same compound, the dTm in assay [7] is 1.78 K; in assay [8], -5.01 K; in [9], 0.00 K; in assay [10] it was -0.18 K; in [11] it was 0.64 K.

Regarding `Cc1cc(NC(=O)C2(C(=O)Nc3cccc(-c4c[nH]c5ncnc(N6CCOCC6)c45)c3)CC2)ccc1F` [Compound 20], the dTm in assay [1] came to 0.24 K; in assay [2], 6.75 K; in assay [3], 0.024 K; in [4] it was 17.51 K; in assay [5], 8.82 K; in [6] it was 3.09 K. Further, the dTm was 3.23 K in assay [7]; 2.57 K in assay [8]; 9.68 K in assay [9]; -1.06 K in [10]; 0.02 K in [11].

As to `COc1cc(NC(=O)C2(C(=O)Nc3cccc(-c4c[nH]c5ncnc(N6CCOCC6)c45)c3)CC2)ccc1F` [Compound 21], the dTm is -0.00539 K in [1]; 4.12 K in assay [2]; -0.09 K in assay [3]; 16.69 K in [4]; 6.37 K in assay [5]; 1.81 K in assay [6]. The dTm in assay [7] is listed as 0.24 K; in [8] it was -0.18 K; in assay [9], 8.20 K; in assay [10], -1.04 K; in assay [11], -0.19 K.

In the case of `CC(C)(C)c1cccc(NC(=O)C2(C(=O)Nc3cccc(-c4c[nH]c5ncnc(N6CCOCC6)c45)c3)CC2)c1` [Compound 22], the dTm amounted to 0.84 K in assay [1]; 4.58 K in assay [2]; 0.30 K in assay [3]; 17.31 K in assay [4]; 4.90 K in [5]; 3.75 K in [6]. Besides, the dTm is 2.71 K in assay [7]; -3.46 K in assay [8]; 6.13 K in assay [9]; -1.08 K in assay [10]; -1.93 K in assay [11].

Regarding `O=C(Nc1cccc(-c2c[nH]c3ncnc(N4CCOCC4)c23)c1)C1(C(=O)Nc2ccc(F)cc2F)CC1` [Compound 23], the dTm in assay [1] is 0.16 K; in assay [2], 2.83 K; in assay [3] it was -0.16 K; in [4], 13.56 K; in assay [5], 4.13 K; in assay [6] it was 1.59 K. In addition, the dTm is recorded as 1.15 K in assay [7]; 0.12 K in assay [8]; 3.90 K in assay [9]; -1.88 K in [10]; -0.34 K in assay [11].

As for `Cc1cc(F)ccc1NC(=O)C1(C(=O)Nc2cccc(-c3c[nH]c4ncnc(N5CCOCC5)c34)c2)CC1` [Compound 24], the dTm in assay [1] is recorded as -0.18 K; in [2] it was 2.55 K; in assay [3], -0.19 K; in assay [4], 12.59 K; in [5] it was 3.77 K; in assay [6] it was 2.35 K. The dTm in assay [7] is 0.68 K; in [8] it was 0.38 K; in [9], 4.64 K; in [10], -2.19 K; in assay [11] it was -0.0334 K.

As to `O=C(Nc1cccc(-c2c[nH]c3ncnc(N4CCOCC4)c23)c1)C1(C(=O)Nc2cc(Br)c(F)cc2F)CC1` [Compound 25], the dTm is 1.32 K in assay [1]; -6.37 K in assay [2]; -0.0637 K in assay [3]; 14.53 K in [4]; -0.86 K in assay [5]; 0.77 K in assay [6]. Further, the dTm in assay [7] is recorded as 1.97 K; in assay [8], -0.79 K; in assay [9], 1.43 K; in assay [10], -1.75 K; in assay [11], 1.20 K.

For the compound `O=C(Nc1cccc(-c2c[nH]c3ncnc(N4CCOCC4)c23)c1)C1(C(=O)Nc2ccc(F)c(Br)c2F)CC1` [Compound 26], the dTm in assay [1] is reported as 1.25 K; in assay [2] it was 1.86 K; in assay [3], -0.03 K; in [4], 13.99 K; in [5], -1.22 K; in assay [6] it was 2.06 K. In addition, the dTm in assay [7] is on record as 2.01 K; in [8] it was 0.09 K; in assay [9] it was 7.56 K; in [10], -2.66 K; in assay [11] it was 1.13 K.

For `O=C(Nc1cc(F)cc(Br)c1)C1(C(=O)Nc2cccc(-c3c[nH]c4ncnc(N5CCOCC5)c34)c2)CC1` [Compound 27], the dTm in assay [1] turned out to be 0.42 K; in [2], 1.77 K; in assay [3], 0.0359 K; in assay [4] it was 12.52 K; in assay [5], 0.18 K; in assay [6] it was 1.19 K. Besides, the dTm in [7] was 1.53 K; in [8] it was -2.87 K; in [9] it was 3.16 K; in assay [10] it was -1.53 K; in assay [11] it was 0.64 K.

Take `CC(C)(C)c1cc(NC(=O)Nc2cccc(-c3c[nH]c4ncnc(N5CCOCC5)c34)c2)n(-c2ccc3ncccc3c2)n1` [Compound 28]: the dTm is given as 0.51 K in [1]; 4.38 K in assay [2]; 0.09 K in [3]; 2.71 K in [4]; 15.55 K in [5]; 3.58 K in assay [6]. Moreover, the dTm in assay [7] is 8.59 K; in assay [8] it was 1.86 K; in [9], 13.25 K; in assay [10], 0.00214 K; in assay [11], 1.32 K.

Take `CCSc1nc(NC)c2c(-c3cccc(NC(=O)Nc4cc(C(C)(C)C)nn4-c4ccc(C)cc4)c3)c[nH]c2n1` [Compound 32]: the dTm in assay [1] is listed as 0.32 K; in assay [2], 0.25 K; in [3] it was 0.25 K; in [4], 1.19 K; in assay [5] it was 3.77 K; in [6], 4.04 K. The dTm in assay [7] is reported as -0.34 K; in assay [8], -4.54 K; in assay [9], -0.49 K; in assay [10], -0.0148 K; in [11], 0.83 K.
